Here are results for two substances from paper PMC11955804, “Histidine-rich enantiomeric peptide coacervates enhance antigen sequestration and presentation to T cells” (Chemical Science, 2025).

The test system of assay [1] is CD4+T cells from OT-II mice on BMDCs. Nature of the assay: OT-II CD4+ T cell proliferation. It is filed as cell-based, mouse. As to conditions: BMDCs treated with OVA-loaded coacervates 24 h, CTV-labeled OT-II T cells ~66 h, flow cytometry. The method, then: (§1) page 14: parameters across two channels: eGFP and DAPI. […] Cells were incubated at 37°C (protected from light) for 20 min, after which 5× staining volume of EasySep Buffer was added for another 5 min of incubation. The cells were counted again, centrifuged at 300 g for 5 min, resuspended in RPMI-1640 (Gibco 31800- 022) with 10% FBS (R and D Systems […]), 10 mM HEPES (Sigma H0887), 1× MEM NEAA (Gibco 11140-050), 1 mM sodium pyruvate (Gibco 11360-070), 1× pen-strep glutamine (Gibco 10378-016), and 55 μM β-mercaptoethanol (Gibco 21985-023) added fresh, and then plated onto treated BMDCs. The plates were incubated for ~66 h, after which supernatants were collected for Mouse Adaptive Immune CodePlex Secretome analyses (Bruker Cellular Analysis, Inc), and cells were collected for flow cytometry studies. Flow cytometry Total cells from the spleen and lymph nodes of OT-I/OT-II mice were washed with FACS […] staining. […] Data were analyzed with FlowJo version 10. Proliferation was quantified as the percentage of daughter cells out of single, live, CD4+ or CD8+T cells, gated as having a lower CTV fluorescence intensity than the peak of highest fluorescence (undivided). […] Data are expressed as mean ± S.E.M. and statistical analysis was performed using a one-way or two-way ANOVA with Tukey/Sidak's/Dunnett's multiple comparison test. *p ≤ 0.05, **p ≤ 0.01, ***p ≤ 0.001, ****p ≤ 0.0001. […]

Assay [2] deals with CD8+T cells from OT-I mice on BMDCs. Description: OT-I CD8+ T cell proliferation. As to conditions: BMDCs treated with OVA-loaded coacervates 24 h, CTV-labeled OT-I T cells ~66 h, flow cytometry. It is filed as cell-based, mouse. The procedure: as §1
On the technique in general: In flow cytometry, cells or beads pass a laser one at a time.

In the case of (GHGLY)4 [GL 20], in assay [1], the “CD4+T cell proliferation” value was “slightly higher”.
For the substance (GHGVY)4 [GV 20], the “CD8+T cell proliferation” value in assay [2] is “higher percentage of proliferated cells”.
